Results on 87 compounds are retold here after a melting point compilation (Tetko et al.; mined from patent text by program, amines drawn as free bases though some values may be those of a salt).

Where only a bound is given, the exact number is not on record here.

Take `CCCc1nc(C(O)C(C)(C)C)c(C(=O)O)n1Cc1ccc(-c2ccccc2C(=O)OC(C)(C)C)cc1` (configuration not stated): the melting point was found to be 207 °C.

Take `O=c1[nH]c2cccnc2n1-c1cc(F)ccc1F`: the melting point stood at 229 °C.

`CCNC(=O)N(O)C(c1ccccc1)c1cc(C(C)(C)C)c(O)c(C(C)(C)C)c1` (configuration not stated): the melting point was 158 to 160 °C.

`Nc1cccc(-c2cc(NC(=O)c3cccs3)nc(-c3ccccc3O)c2)c1` displayed a melting point of 161 to 162 °C.

As for `Cc1ccc(S(=O)(=O)OCCCCCCn2c3c(c4ccccc4c2=O)C(=O)c2ccccc2-3)cc1`, the melting point lay in the range of 146 to 149 °C.

Take `Nc1nc2c(sc(=O)n2Cc2ccccc2)c(=O)[nH]1`: the melting point was more than 320 °C.

`CC(CO)C1CCC2=C3C=CC4C(C)(C)C(OC(=O)c5ccccc5)CCC4(C)C3CCC21C` (configuration not stated): the melting point was in the range of 218 to 220 °C.

Turning to `CN1CCN(c2cc(Cl)cc3c2c(=O)n(Cc2cccc4ccccc24)c(=O)n3Cc2ccccc2)CC1`, the melting point was 75 to 89 °C.

As to `CC1=C(c2ccncc2)CCC(=O)N1`, the melting point was 175 to 177 °C.

For `CCOC(=O)C1=COc2cc(C(C)(C)C)c(O)cc2O1`, the melting point amounted to 222 °C.

The compound `O=C(O)CCP(=O)(O)CCC(=O)O` yielded a melting point of 156 to 159 °C.

For `c1ccc(Nc2nccc(-c3ccc(-c4ccc(N(c5ccccc5)c5ccccc5)cc4)cc3)n2)cc1`, the melting point was more than 300 °C.

With `CNC(=O)N(CCN)c1nc(-c2ccc(F)cc2C)c2ccc(=O)n(-c3c(F)cccc3F)c2n1`, the melting point lay within 124 to 133 °C.

As to `CC1CCc2c(-c3ccccc3)nc(=O)n(C(C)C)c2C1` (configuration not stated), the melting point lay in the range of 150 to 153 °C.

The compound `Fc1cc(Br)c2ncccc2c1` returned a melting point of 75 to 78 °C.

Compound `CS(=O)(=O)C1Cc2cc(Cl)ccc2C1O` (configuration not stated) registered a melting point of 163 °C.

On to `COc1ccc(-n2c(-c3sc(Nc4ccccc4)nc3-c3ccccc3)nc3ccccc3c2=O)cc1`, for which the melting point is 135 to 137 °C.

For `O=C(O)C1CCN(Cc2ccccc2)CC1`, the melting point is 167 to 168 °C.

For the compound `O=S(=O)(c1ccc(F)cc1)N1CCCC1c1ccsc1` (racemic), the melting point was 135 °C.

The compound `COc1cc(C(=O)NS(=O)(=O)c2ccccc2C)ccc1Cc1cn(C)c2ccc(CC(C)NC(=O)N(C)C)cc12` (configuration not stated) came in with a melting point of 125 to 135 °C.

Turning to `O=[N+]([O-])c1cn2c(n1)O[C@@H](COc1ccc3nc(N4CCN(Cc5ccc(OC(F)(F)F)cc5)CC4)sc3c1)CC2`, the melting point was in the range of 157 to 159 °C.

The compound `CC(C)(NCC(F)(F)CN)C(CCn1ccnc1[N+](=O)[O-])=NO` gave a melting point of 112 to 114 °C.

Compound `CC12CCC(=O)NC1=CCC1C2CCC2(C)C(=NN)CCC12` (configuration not stated) displayed a melting point of 379 to 382 °C.

`Cc1c[nH]c2c1CC1CNCCC1C2` (configuration not stated) gave a melting point of 151 to 153 °C.

`CCCCC(=N)NC(=O)NC1CCCCC1`: the melting point is 146 to 148 °C.

The compound `Cc1ccc(C(=O)Nc2nc3ccccc3c(=O)n2C)cc1` displayed a melting point of 189 to 191 °C.

Consider `CCOc1nn(-c2ccc(C(F)(F)F)cn2)cc1CCCOc1cc(CC(=O)O)n(C)n1`, for which the melting point fell in the range of 151 to 152 °C.

`CCC1=C(c2ccccc2)C(c2ccccc2)=C(CC)C1=C(C#N)C#N` displayed a melting point of 154 to 156 °C.

`CC(=O)NCCOC(=O)C(Oc1ccc(F)c(C(F)(F)F)c1)c1ccc(F)cc1` (configuration not stated) came in with a melting point of 100 °C.

`Cc1onc(-c2cccc(Cl)c2)c1C(=O)O` came in with a melting point of 171 to 173 °C.

For the compound `O=C1OC(COc2ccccc2)CN1Sc1ccc(Cl)cc1` (configuration not stated), the melting point lay within 98 to 101 °C.

For the compound `Cn1c(Cc2c(F)cccc2F)nnc1C(N)=O`, the melting point fell in the range of 189 to 190 °C.

Regarding `CCOC(=O)[C@@H]1C[C@H]([N+](=O)[O-])[C@@H](C(=O)O)[C@H](OC(CC)CC)[C@@H]1Sc1ccc(C)cc1`, the melting point was 135 to 136 °C.

With `CN(CC(=O)O)C(=O)C=Cc1ccccc1`, the melting point lay within 177 to 179 °C.

In turn, `Cc1cccc(-c2nc(N)sc2-c2ccnc(-c3ccc(CN4CCOCC4)cc3)c2)n1` yielded a melting point of 190 to 192 °C.

`CCCc1c(OCCCSc2c(F)cccc2C(=O)CCC(=O)O)ccc(C(C)=O)c1O` gave a melting point of 115 to 116 °C.

On to `Cc1ccccc1Cc1nc2cc(Cl)c(S(N)(=O)=O)cc2[nH]1`, for which the melting point was 226 to 230 °C.

Compound `O=C1NC(=O)C(S(=O)(=O)c2ccccn2)S1` (configuration not stated) gave a melting point of 129 to 131 °C.

With `Cc1oc(-c2ccccc2)nc1COc1ccc(Cc2nc(-c3ccccc3)c(CCC(=O)O)[nH]2)cc1`, the melting point was in the range of 193 to 196 °C.

For `COc1ccc(P(=O)(c2ccccc2)c2ccccc2)c(I)c1OC`, the melting point is 178 to 180 °C.

`COc1ccc(S(=O)(=O)Nc2ccccc2Nc2cccc(O)c2)cc1` registered a melting point of 165 to 166 °C.

`OCCCc1cn(Cc2ccccc2)c2ccccc12`: the melting point amounted to 75 °C.

In turn, `Cc1nc(NC(CO)C(C)SCc2ccccc2)c2nc(-c3ccccc3)cc-2[nH]1` (configuration not stated) displayed a melting point of 220 to 222 °C.

Take `O=C(O)Cn1c(=O)c(=O)[nH]c2ccccc21`: the melting point was more than 300 °C.

`O=C(NCCOc1cccc2c1OCC(CO)O2)c1ccc(F)cc1` (configuration not stated) came in with a melting point of 124 °C.

The compound `C#Cc1cn(C2CC(F)C(COC(c3ccccc3)(c3ccccc3)c3ccccc3)O2)c(=O)[nH]c1=O` (configuration not stated) returned a melting point of 54 °C.

The compound `Fc1cc(CC2(Cc3ccncc3)c3ccccc3Oc3ccccc32)ccn1` came in with a melting point of 180 to 181 °C.

Regarding `O=C1c2c(-c3ccccc3)noc2CCC1CCCN1CCC(n2c(=O)[nH]c3ccccc32)CC1` (configuration not stated), the melting point lay within 212 to 218 °C.

Consider `COc1ccccc1N1CCN(CCn2cnc3sc4c(c3c2=O)CCNC4)CC1`, for which the melting point fell in the range of 168 to 170 °C.

Consider `CN(OCc1ccccc1)S(=O)(=O)c1ccccc1S(N)(=O)=O`, for which the melting point is 122 to 128 °C.

On to `Cc1nnc(-c2ccc3occ(-c4ccc(S(C)(=O)=O)c(Cl)c4)c3c2)o1`, for which the melting point fell in the range of 204 to 205 °C.

`CC(=Cc1ccc(Cl)cc1Cl)[N+](=O)[O-]` displayed a melting point of 75 °C.

Compound `COc1ccc(-c2c[nH]c(-c3nc(-c4ccco4)c(C(=O)C4CCOCC4)s3)n2)cc1` showed a melting point of 178 to 180 °C.

In turn, `COc1cc(/C=C/c2cc(/C=C/c3ccc4[nH]ccc4c3)n[nH]2)ccc1OCc1ccccn1` showed a melting point of 96 to 101 °C.

Compound `N#Cc1sc(Cl)nc1Cl` yielded a melting point of 34 to 35 °C.

In turn, `Cc1c(-c2ccccc2)[nH]c(N2CCCC2=O)c1C#N` yielded a melting point of 140 to 141 °C.

The compound `COc1nc(NC(=N)SC)nc(OC)n1` came in with a melting point of 94 to 100 °C.

As for `FC(F)(F)c1cccc(-c2[nH]c(C3CCNCC3)cc2-c2ccncc2)c1`, the melting point was 106 to 112 °C.

The compound `OCCOC12CC(CO)CNC1Cc1c[nH]c3cccc2c13` (configuration not stated) had a melting point of 198 to 205 °C.

`CCCCc1c(-c2cnccn2)ssc1=S` gave a melting point of 72 °C.

The compound `CC(=O)Nc1ccc(N2CCN(c3ccc(OCC(O)(Cn4cncn4)c4ccc(Cl)cc4Cl)cc3)CC2)cc1` (configuration not stated) came in with a melting point of 169 to 171 °C.

For `O=CNCc1ccccc1C(F)(F)C(F)(F)c1ccccc1`, the melting point lay within 61 to 75 °C.

In turn, `CC(C)(S)CNC(=O)c1ccccc1-c1ccccc1C(=O)O` displayed a melting point of 150 to 153 °C.

`O=C1N(Cc2ncccc2C(F)(F)F)c2ccccc2C12COc1c2ccc2c1OCCO2` (configuration not stated): the melting point is 206 to 207 °C.

Compound `CC(C)(OCc1cc2cc(C(F)(F)F)ccc2n1S(=O)(=O)c1ccc2ncsc2c1)C(=O)O` had a melting point of 98 to 100 °C.

In the case of `Cc1cccc(-c2sc(N)nc2-c2ccnc(-c3ccc(CN(C)C)cc3)c2)n1`, the melting point is 210 °C.

In turn, `CC(C)(C)c1cc(-c2nn(C3CCOC3=O)c3ncccc23)cc(C(C)(C)C)c1O` (configuration not stated) gave a melting point of 164 to 167 °C.

`COc1cc2c(c3c1OC(C)(C)C3)C(c1ccn(-c3cc(C(N)=O)ccn3)c(=O)c1)=NC(C)(C)C2` gave a melting point of 174 to 175 °C.

`Cc1ccc2c(c1)C(=O)C(CC=O)C2` (racemic) returned a melting point of 53 to 54 °C.

As for `CCOC(=O)c1sc(NC(=O)c2ccc(C)cc2)nc1C(F)(F)C(F)(F)F`, the melting point is 202 to 203 °C.

In the case of `CC(C)(C)c1cc(SC(Sc2cc(C(C)(C)C)c(O)c(C(C)(C)C)c2)c2ccccc2)cc(C(C)(C)C)c1O`, the melting point lay in the range of 122 to 124 °C.

The compound `Cc1cc(N)nc(-c2ccncc2)n1` gave a melting point of 192 to 194 °C.

`CC(C)N1Cc2cc(CO)ccc2N(CCN2CC=C(c3c[nH]c4cc(F)ccc34)CC2)S1(=O)=O` gave a melting point of 113 to 115 °C.

`CCOC(=O)c1ccc(CCN2CCN(C(=O)CCc3cc(C(C)(C)C)c(O)c(C(C)(C)C)c3)CC2)cc1`: the melting point lay within 105 to 107 °C.

With `CCN(CC)C(C)CN1CCc2c(c(=O)oc3cc(OC)ccc23)C1` (configuration not stated), the melting point lay within 83 to 85 °C.

Regarding `COc1ccc2c(c1)CCC1C2=CCC2(C)C(O)CCC12` (configuration not stated), the melting point fell in the range of 95 to 97 °C.

For the compound `CC(C)c1cccc(C(C)C)c1NC(=O)N(Cc1ccc(N(C)C)cc1)c1ccc(F)cc1`, the melting point is 124 to 125 °C.

In the case of `Clc1nc(Cl)c2ccsc2n1`, the melting point was 116 °C.

`Cc1[nH]c(=O)ccc1C(=O)c1ccc([N+](=O)[O-])cc1` registered a melting point of 282 to 284 °C.

In the case of `CCOC(=O)N[C@@H]1CCc2ccccc2[C@H]1Cl` (relative stereo), the melting point is 124 to 126 °C.

Turning to `O=C1CCCN(C(=O)c2ccccc2)C(=O)CCc2cc(Cl)ccc21`, the melting point lay in the range of 129 to 131 °C.

`CC(=O)OC[C@H]1CCn2c(cc3ccccc32)C1`: the melting point lay within 63 to 64 °C.

With `COC(=O)N(C(S)=NC(C)C)c1c(C(C)C)cccc1C(C)C`, the melting point lay in the range of 98 to 99 °C.

For `O=C(c1ccccc1)N1CCc2c(c(=O)[nH]c3ccccc23)C1`, the melting point lay in the range of 275 to 277 °C.

For the compound `CCOC(=O)C(C)(C)CCCCCOc1ccc(NC(=O)CCCCCn2ccnc2)cc1`, the melting point was determined as 59 °C.

Compound `COc1cc(CCCCC2OC(=O)NC2=O)ccc1OCc1ccccc1` (configuration not stated) returned a melting point of 92 to 93 °C.

In turn, `CCN1C(=O)SC(Cc2ccc(NC(=O)/C=C/c3cnn(C)c3-c3ccc(F)cc3)cc2)C1=O` (configuration not stated) had a melting point of 214 to 215 °C.

As usually defined, the melting point is the temperature of the solid-liquid transition.
